Data published in patent US6344564B1, “Fungicidal 2-imidazolin-5-ones and 2-imidazoline-5-thiones” (priority 1992, dated 2002).

Tests used:
[1] = system: Phytophthora infestans; assay type: in vivo; details: concentration at which 75% inhibition of the disease is observed; tomato seedlings (Marmande) sprayed 24 hours before infection with Phytophthora infestans spores; read seven days after infecting vs controls
[2] = system: Pythium vexans; test: In vitro test on PDA medium, Pythium vexans; details: Phytopythium vexans, 120 h, read-out: degree of inhibition of the fungus
Method: (§1) Each test is carried out in the following way: a nutrient medium consisting of potato, glucose and gelose (PDA medium) is introduced in the supercooled state into a series of Petri dishes (100 ml per dish) after sterilization in an autoclave at 120° C.
(§2) While filling the dishes, an acetone solution of the active material is injected into the supercooled medium to obtain the desired final concentration.
(§3) After 24 hours, each dish is cultured by depositing a fragment of ground mycelium arising from a previous culture of the same fungus.
(§4) For each compound tested, the degree of inhibition of the fungus studied is thus determined for a dose of 20 ppm.

[3] = system: Pythium rostratum; test: In vitro test on PDA medium, Pythium rostratum; details: Globisporangium rostratum, 120 h, read-out: degree of inhibition of the fungus
Method: as §1, §2, §3, §4

[4] = system: Puccinia recondita; test: In vivo test on Puccinia recondita (brown rust of wheat); details: read-out: protection
[5] = system: Plasmopara viticola; test: In vivo test on Plasmopara viticola (grape downy mildew); details: in Vitis vinifera, 168 h, read-out: protection
[6] = system: Alternaria alternata; test: In vitro test on PDA medium, Alternaria alternata; details: 120 h, read-out: degree of inhibition of the fungus
Method: as §1, §2, §3, §4

[7] = system: Helminthosporium gramineum; test: In vitro test on PDA medium, Helminthosporium gramineum; assay type: cell-based; details: 120 h, dose of 20 ppm in PDA medium, 5 days at 20° C., compared with control dish, read-out: degree of inhibition of the fungus

| SMILES | melting point [°C] | IC75 (ppm) [1] | also measured |
| --- | --- | --- | --- |
| CSC1=NC(C)(c2ccccc2)C(=S)N1Nc1ccccc1 (stereo not drawn) [Compound 1, 4-methyl-2-methylthio-4-phenyl-1-phenylamino-2-imidazoline-5-thione] | 127 |  |  |
| CSC1=NC(C)(c2ccc(F)cc2)C(=O)N1Nc1ccccc1 (racemic) [511 + 512] |  | 110 ppm |  |
| COC1=NC(C)(c2ccccc2)C(=O)N1Nc1ccccc1 (racemic) [503 + 504] |  | 330 ppm |  |
| CSC1=NC(c2ccccc2)C(=O)N1Nc1ccccc1 (stereo not drawn) | 190 |  |  |
| COC1=NC(C)(c2ccc(Br)cc2)C(=O)N1Nc1ccccc1 (stereo not drawn) [Compound 506] |  | >1000 ppm |  |
| CSC1=NC2(CCCc3ccccc32)C(=O)N1Nc1ccccc1 (stereo not drawn) [Compound 97] | 158 |  |  |
| CSC1=NC(C)(c2ccccc2)C(=O)N1Cc1ccccc1 (stereo not drawn) [Compound 34, 1-benzyl-4-methyl-2-methylthio-4-phenyl-2-imidazolin-5-one] |  |  | inhibition at 20 ppm [2]: 80 to 100%; inhibition at 20 ppm [3]: 80 to 100% |
| CSC1=NC(C)(c2ccc(F)cc2)C(=O)N1Nc1cccc(F)c1 (racemic) [513 + 514] |  | 110 ppm |  |
| COC1=NC(C)(c2ccc(Br)cc2)C(=O)N1Nc1ccccc1 (stereo not drawn) [Compound 505] | 202 | 37 ppm |  |
| CSC1=NC2(CCCc3ccccc32)C(=O)N1Nc1ccc(Cl)cc1 (stereo not drawn) | 191 |  |  |
| CSC1=N[C@@](C)(c2ccc(F)cc2)C(=O)N1Nc1ccccc1 [Compound 511] |  | 12-37 ppm |  |
| CSC1=NC2(CCCc3ccccc32)C(=O)N1Nc1ccccc1C (stereo not drawn) | 174 |  |  |
| CSC1=NC2(CCc3ccccc32)C(=O)N1Nc1ccccc1 (stereo not drawn) [Compound 98] | 85 |  |  |
| CSC1=N[C@@](C)(c2ccc(F)cc2)C(=O)N1Nc1cccc(F)c1 [Compound 513] |  | 37 ppm |  |
| COC1=N[C@@](C)(c2ccccc2)C(=O)N1Nc1ccccc1 [Compound 503, (+)-(4S)-4-methyl-2-methoxy-4-phenyl-1-phenylamino-2-imidazolin-5-one] | 132 | 110 ppm |  |
| COC1=NC2(CCc3ccccc32)C(=O)N1Nc1ccccc1 (stereo not drawn) [Compound 410] |  |  | pest or weed control at 1000 µg/mL [4]: ≥ 75%; pest or weed control at 1000 µg/mL [5]: ≥ 75% |
| CSC1=NC2(CCCc3ccccc32)C(=O)N1Nc1ccccc1Cl (stereo not drawn) [Compound 104] | 168 |  |  |
| CSC1=NC(C)(c2ccccc2)C(=O)N1N(C)c1ccccc1 (stereo not drawn) [Compound 22, 4-methyl-1-(N-methyl-N-phenylamino)-2-methylthio-4-phenyl-2-imidazolin-5-one] | 124 |  | inhibition at 20 ppm [2]: 80 to 100%; inhibition at 20 ppm [3]: 80 to 100%; inhibition at 20 ppm [6]: 80 to 100% |

| SMILES | melting point [°C] | IC75 (ppm) [1] | also measured |
| --- | --- | --- | --- |
| CSC1=NC(C)(c2ccccc2)C(=O)N1Nc1ccccc1 (stereo not drawn) [Compound 502] |  | >1000 ppm |  |
| COC1=NC(C)(c2ccc(F)cc2)C(=O)N1Nc1cccc(F)c1 (racemic) [527 + 528] |  | 37 ppm |  |
| CSC1=N[C@@](C)(c2ccccc2)C(=O)N1Nc1ccccc1 [Compound 501, (+)-(4S)-4-methyl-2-methylthio-4-phenyl-1-phenylamino-2-imidazolin-5-one] |  | 37 ppm |  |
| CSC1=NC(C)(Cc2ccccc2)C(=O)N1Nc1ccccc1 (stereo not drawn) | 166 |  |  |
| COC1=NC(C)(c2ccccc2)C(=O)N1Nc1ccccc1 (stereo not drawn) [Compound 504] | 132 | >1000 ppm |  |
| COC1=NC(C)(c2ccc(F)cc2)C(=O)N1Nc1ccccc1 (single isomer, unassigned) [Compound 526] |  | >1000 ppm |  |
| CSC1=NC(C)(c2ccccc2)C(=O)N1Nc1ccccc1 (stereo not drawn) [Compound 9, 4-methyl-2-methylthio-4-phenyl-1-phenylamino-2-imidazolin-5-one] |  |  | inhibition at 20 ppm [2]: 80 to 100%; inhibition at 20 ppm [7]: 80 to 100%; inhibition at 20 ppm [3]: 80 to 100% |
| CSC1=NC(C)(c2ccccc2)C(=O)N1N(C(C)=O)c1ccccc1 (stereo not drawn) [Compound 23, 4-methyl-1-(N-acetyl-N-phenylamino)-2-methylthio-4-phenyl-2-imidazolin-5-one] | 132 |  |  |
| COC1=NC(C)(c2ccc(Br)cc2)C(=O)N1Nc1ccccc1 (racemic) [505 + 506] |  | >1000 ppm |  |
| CCC1(c2ccccc2)N=C(SC)N(Nc2ccccc2)C1=O (stereo not drawn) [Compound 48, 4-ethyl-2-methylthio-4-phenyl-1-phenylamino-2-imidazolin-5-one] | 147 |  |  |
| COC1=NC(C)(c2ccc(F)cc2)C(=O)N1Nc1ccccc1 (racemic) [525 + 526] |  | 110 ppm |  |
| COC1=NC2(CCCc3ccccc32)C(=O)N1Nc1ccccc1 (stereo not drawn) [Compound 407] |  |  | pest or weed control at 1000 µg/mL [4]: ≥ 75%; pest or weed control at 1000 µg/mL [5]: ≥ 75% |
| COC1=NC(C)(c2ccc(F)cc2)C(=O)N1Nc1cccc(F)c1 (single isomer, unassigned) [Compound 527] |  | 4-12 ppm |  |
| CSC1=NC(C)(c2ccccc2)C(=O)N1Nc1ccccc1 (racemic) [501 + 502] |  | 110 ppm |  |
| CSC1=NC(C)(c2cccnc2)C(=O)N1Nc1ccccc1 (stereo not drawn) | 156 |  |  |
| COC1=NC(C)(c2cccs2)C(=O)N1Nc1ccccc1 (stereo not drawn) [Compound 486] |  |  | pest or weed control at 1000 µg/mL [4]: ≥ 75%; pest or weed control at 1000 µg/mL [5]: ≥ 75% |
| CC1=NC(C)(c2ccccc2)C(=O)N1Nc1ccccc1 (stereo not drawn) [Compound 201, 2,4-dimethyl-4-phenyl-1-phenylamino-2-imidazolin-5-one] | 135 |  |  |
| COC1=NC(C)(c2ccc(F)cc2)C(=O)N1Nc1ccccc1 (single isomer, unassigned) [Compound 525] |  | 37 ppm |  |
